This note sets out measurements from patent US10945434B2, “Azole derivative, intermediate compound, method for producing azole derivative, agricultural or horticultural chemical agent, and protective agent for industrial material” (priority 2017, dated 2021).

Test [1] deals with puccinia recondite-causing germs. The test is described as follows: Puccinia Recondite control effect test (spray on wheat). Type of test: in vivo.
The test system is the same in test [2]. The settings on record: in vivo.
The subject of a further test is Septoria tritici. As to conditions: in vivo.
In the next test the test system is gray mold fungi. The test is described as follows: Cucumber gray mold disease control effect test. The settings on record: 100 g/ha; spray on cotyledon cucumber; 4 days after the inoculation. Format: in vivo, Botrytis cinerea. The procedure: The compounds of the present invention were adjusted to a predetermined concentration ([…]) according to Test Example 2 in a cotyledon cucumber (variety: Sagami Hanjiro Cucumber) cultivated using a rectangular plastic pot (6 cm×6 cm), and sprayed at a ratio of 1,000 L/ha. After air-drying the spray leaves, a paper disc (8 mm in diameter) impregnated with the spore solution of gray mold fungi was placed and kept at 20° C. under high humidity conditions. On 4 days after the inoculation, a morbidity of cucumber gray mold disease was examined, and a control value was calculated by the following Equation. Control value (%)=(1−average morbidity of sprayed area/average morbidity of unsprayed area)×100
In addition, the morbidity was determined based on the following Table 12.

Where [3] appears, read: 3.13 g/ha, spray on second leaf stage wheat, 14 days after the inoculation.

Experimental for Septoria tritici: The severity of flag leaf and second leaf was evaluated after 50 days lapsed after the second spraying. The control value was calculated from the average severity of the flag leaf and the second leaf. Control value (%)=(1−average severity of treated area/average severity of untreated area)×100

Regarding `CC(O)(Cn1cncn1)c1ccc(Oc2ccc(Cl)cc2)cc1C(F)(F)F` (stereo not shown), the figures for the control value (in test [1] (in vivo); in the test on Septoria tritici) were 20% and 88%, respectively. The “Control value (%)” value in test [2] was determined as 86%.
In test [1] (setting [3]), `COC(=O)C(O)(Cn1cncn1)c1ccc(Oc2cccc(Cl)c2)cc1Cl` (stereo not shown) [Compound I-20, methyl 2-(2-chloro-4-(3-chlorophenoxy)phenyl)-2-hydroxy-3-(1H-1,2,4-triazol-1-yl)propanoate] had a control value of 80%.
`COC(=O)C(O)(Cn1cncn1)c1ccc(Oc2ccccc2)cc1` (stereo not shown) [control compound B, methyl 2-hydroxy-2-(4-phenoxyphenyl)-3-(1H-1,2,4-triazol-1-yl)propanoate] displayed a control value in the test with gray mold fungi of 0%.
Turning to `COC(=O)C(O)(Cn1cncn1)c1ccc(Oc2ccc(Cl)cc2)cc1Cl` (stereo not shown) [Compound I-1, methyl 2-hydroxy-2-(2-chloro-4-(4-chlorophenoxy)phenyl)-3-(1H-1,2,4-triazol-1-yl)propanoate], in test [1] (setting [3]), the control value came to 73%. Further, the “Control value (%)” value in test [2] amounted to 99%.
